pIC50: −log10 of the molar value. Bounds are passed on as bounds.

The target in one experiment is T1, recombinant human GST-Syk (Homo sapiens, UniProt P43405).
T1 construct: purchased Carna Biosciences 08-176
The experiment in a line: Homogeneous Time-Resolved Fluorescence (HTRF) assay for the recombinant human Syk enzyme. The format is biochemical. The conditions noted are these: ATP 25 μM, 10-dose titration, read-out: rhSYK Activity. How it is done: Syk inhibition may be determined using the following assay protocol:
Homogeneous Time-Resolved Fluorescence (HTRF) Assay for the Recombinant Human Syk Enzyme:
A recombinant GST-hSyk fusion protein was used to measure potency of compounds to inhibit human Syk activity. The recombinant human GST-Syk (Carna Biosciences #08-176) ([…]) was incubated with various concentrations of the inhibitor diluted in DMSO (0.1% final concentration) for 10 minutes at room temperature in 15 mM Tris-HCl (pH 7.5), 0.01% tween 20, 2 mM DTT in 384 well plate format. To initiate the reaction the biotinylated substrate peptide (250 nM final concentration) that contains the phosphorylation site for Syk was added with magnesium (5 mM final concentration) and ATP (25 μM final concentration). Final volume of the reaction was 10 μL. Phosphorylation of the peptide was allowed to proceed for 45 minutes at room temperature. To quench the reaction and detect the phosphorylated product, 2 nM of a Europium-anti-phosphotyrosine antibody (Perkin Elmer #AD0161) and 70 nM SA-APC (Perkin-Elmer #CR130-100) were added together in 15 mM Tris pH 7.5, 40 mM EDTA, 0.01% tween 20. Final volume of the quenching solution was 10 μL. The resulting HTRF signal was measured after 30 minutes on an EnVision (Perkin-Elmer) reader using a time-resolved fluorescence protocol. IC50 was determined following 10-dose titration (10 μM to 0.508 nM) and four parameter logistic curve fitting using the Merck Assay Data Analyzer. The rhSyk activity (IC50) is expressed as +++ (100 nM or less), ++ (between 100 and 1000 nM), + (between 1 and 10 μM).
In general terms: TR-FRET usually uses a lanthanide donor and a delayed reading to cut background.
On to `Cc1cc(Nc2nccc(C(F)(F)F)n2)cc(-n2cnc([C@]3(O)CC[C@](C)(C(=O)O)CC3)c2)c1` [Example 20, trans-4-hydroxy-1-methyl-4-[1-(3-methyl-5-{[4-(trifluoromethyl)-pyrimidin-2-yl]amino)-phenyl)-1H-imidazol-4-yl]cyclohexanecarboxylic acid], for which the pIC50 was at least 7.00. Still for that read-out and setting: to `CCOC(=O)C1(C)CCC(O)(c2cn(-c3cc(C)cc(Nc4nccc(C(F)(F)F)n4)c3)cn2)CC1` (stereo not drawn) [Example 22, Ethyl trans-4-hydroxy-1-methyl-4-[1-(3-methyl-5-{[4-(trifluoromethyl)pyrimidin-2-yl]amino}phenyl)-1H-imidazol-4-yl]cyclohexanecarboxylate] belongs at least 7.00.

In the case of `CCOC(=O)C(C)(C)[C@H]1CC[C@](O)(c2cn(-c3cc(C)cc(Nc4cc(C(F)(F)F)ccn4)n3)cn2)CC1` [Example 23, Ethyl 2-{cis-4-hydroxy-4-[1-(4-methyl-6-{[4-(trifluoromethyl)pyridin-2-yl]amino}pyridin-2-yl)-1H-imidazol-4-yl]cyclohexyl}-2-methylpropanoate], the pIC50 is at least 7.00. Turning to `CCOC(=O)C(C)(C)C1CCC(O)(c2cn(-c3cc(C)cc(Nc4cc(C(F)(F)F)ccn4)n3)cn2)CC1` (stereo not drawn) [Example 24, Ethyl 2-{trans-4-hydroxy-4-[1-(4-methyl-6-{[4-(trifluoromethyl)-pyridin-2-yl]amino}-pyridin-2-yl)-1H-imidazol-4-yl]-cyclohexyl}-2-methylpropanoate], the pIC50 was 6.00 to 7.00. For the molecule `Cc1cc(Nc2cc(C(F)(F)F)ccn2)nc(-n2cnc([C@]3(O)CC[C@H](C(=O)O)CC3)c2)c1` [Example 26, trans-4-hydroxy-4-[1-(4-methyl-6-{[4-(trifluoromethyl)pyridin-2-yl]amino}pyridin-2-yl)-1H-imidazol-4-yl]cyclohexanecarboxylic acid], the pIC50 was at least 7.00. For the molecule `Cc1cc(Nc2cc(C(F)(F)F)ccn2)nc(-n2cnc([C@]3(O)CC[C@@H](C(=O)O)CC3)c2)c1` [Example 27, cis-4-hydroxy-4-[1-(4-methyl-6-{[4-(trifluoromethyl)pyridin-2-yl]amino}pyridin-2-yl)-1H-imidazol-4-yl]cyclohexanecarboxylic acid], the pIC50 was at least 7.00. Consider `CCOC(=O)[C@H]1CC[C@@](O)(c2cn(-c3cc(C)cc(Nc4cc(C(F)(F)F)ccn4)n3)cn2)CC1` [Example 28, Ethyl trans-4-hydroxy-4-[1-(4-methyl-6-{[4-(trifluoromethyl)pyridin-2-yl]amino}pyridin-2-yl)-1H-imidazol-4-yl]cyclohexane-carboxylate], for which the pIC50 was at least 7.00.

Turning to `CCOC(=O)[C@H]1CC[C@](O)(c2cn(-c3cc(C)cc(Nc4cc(C(F)(F)F)ccn4)n3)cn2)CC1` [Example 29, Ethyl cis-4-hydroxy-4-[1-(4-methyl-6-{[4-(trifluoromethyl)pyridin-2-yl]amino}pyridin-2-yl)-1H-imidazol-4-yl]cyclohexane-carboxylate], the pIC50 was at least 7.00. For `Cc1cc(Nc2nccc(C(F)(F)F)n2)cc(-n2cnc([C@]3(O)CC[C@@H](C(=O)N4CCOCC4)CC3)c2)c1` [Example 30, cis-1-[1-(3-methyl-5-{[4-(trifluoromethyl)pyrimidin-2-yl]amino}phenyl)-1H-imidazol-4-yl]-4-(morpholin-4-ylcarbonyl)cyclohexanol], the pIC50 was at least 7.00.

Consider `Cc1cc(Nc2nccc(C(F)(F)F)n2)cc(-n2cnc(C3(O)CCC(C(=O)N4CCCC4)CC3)c2)c1` (stereo not drawn) [Example 31, cis-1-[1-(3-methyl-5-{[4-(trifluoromethyl)pyrimidin-2-yl]amino}phenyl)-1H-imidazol-4-yl]-4-(pyrrolidin-1-ylcarbonyl)cyclohexanol], for which the pIC50 is at least 7.00. The same measure, in the same setting: as for `Cc1cc(Nc2nccc(C(F)(F)F)n2)cc(-n2cnc([C@]3(O)CC[C@@H](C(=O)N(C)C)CC3)c2)c1` [Example 32, cis-4-hydroxy-N,N-dimethyl-4-[1-(3-methyl-5-{[4-(trifluoromethyl)-pyrimidin-2-yl]amino}-phenyl)-1H-imidazol-4-yl]cyclohexane-carboxamide], the figure is at least 7.00; as for `Cc1cc(Nc2nccc(C(F)(F)F)n2)cc(-n2cnc([C@]3(O)CC[C@H](C(N)=O)CC3)c2)c1` [Example 33, trans-4-hydroxy-4-[1-(3-methyl-5-{[4-(trifluoro-methyl)pyrimidin-2-yl]amino}phenyl)-1H-imidazol-4-yl]-cyclohexanecarboxamide], at least 7.00. `Cc1cc(Nc2nccc(C(F)(F)F)n2)cc(-n2cnc([C@]3(O)CC[C@@H](C(N)=O)CC3)c2)c1` [Example 34, cis-4-hydroxy-4-[1-(3-methyl-5-{[4-(trifluoromethyl)-pyrimidin-2-yl]amino}phenyl)-1H-imidazol-4-yl]-cyclohexanecarboxamide]: the pIC50 was at least 7.00.

As to `Cc1cc(Nc2nccc(C(F)(F)F)n2)cc(-n2cnc(C3(O)CCC(C(=O)O)CC3)c2)c1` (stereo not drawn) [Example 35, trans-4-hydroxy-4-[1-(3-methyl-5-[[4-(trifluoromethyl)pyrimidin-2-yl]amino}phenyl)-1H-imidazol-4-yl]cyclohexanecarboxylic acid], the pIC50 is at least 7.00. As to `CCOC(=O)C1CCC(O)(c2cn(-c3cc(C)cc(Nc4nccc(C(F)(F)F)n4)c3)cn2)CC1` (stereo not drawn) [Example 36, Ethyl trans-4-hydroxy-4-[1-(3-methyl-5-{[4-(trifluoromethyl)pyrimidin-2-yl]amino}phenyl)-1H-imidazol-4-yl]-cyclohexanecarboxylate], the pIC50 is at least 7.00. Same read-out and setting: as for `Cc1cc(Nc2nccc(C(F)(F)F)n2)cc(-n2cnc([C@]3(O)CC[C@@H](O)CC3)c2)c1` [Example 37, Cis-1-[1-(3-methyl-5-{[4-(trifluoromethyl)pyrimidin-2-yl]amino}phenyl)-1H-imidazol-4-yl]cyclohexane-1,4-diol], the figure is at least 7.00. `Cc1cc(Nc2nccc(C)n2)cc(-n2cnc([C@]3(O)CC[C@@H](O)CC3)c2)c1` [Example 38, Cis-1-(1-{3-methyl-5-[(4-methylpyrimidin-2-yl)amino]phenyl}-1H-imidazol-4-yl)cyclohexane-1,4-diol]: the pIC50 was at least 7.00. Take `COc1ccnc(Nc2cc(C)cc(-n3cnc([C@]4(O)CC[C@@H](O)CC4)c3)c2)n1` [Example 39, cis-1-(1-{3-[(4-methoxypyrimidin-2-yl)amino]-5-methylphenyl}-1H-imidazol-4-yl)cyclohexane-1,4-diol]: the pIC50 is at least 7.00. On the same count and under the same terms, as for `Cc1cc(Nc2nccc(C3CC3)n2)cc(-n2cnc([C@]3(O)CC[C@@H](O)CC3)c2)c1` [Example 40, cis-1-(1-{3-[(4-cyclopropylpyrimidin-2-yl)amino]-5-methylphenyl}-1H-imidazol-4-yl)cyclohexane-1,4-diol], the figure is at least 7.00. Still for that read-out and setting: as for `COc1ccnc(Nc2cc(C)cc(-n3cnc(C4(O)CCC(OC(=O)c5ccccc5)CC4)c3)c2)n1` (stereo not drawn) [Example 41, cis-4-hydroxy-4-(1-{3-[(4-methoxypyrimidin-2-yl)amino]-5-methylphenyl}-1H-imidazol-4-yl)cyclohexyl benzoate], the figure is at least 7.00; as for `Cc1cc(Nc2nccc(C3CC3)n2)cc(-n2cnc([C@]3(O)CC[C@@H](OC(=O)c4ccccc4)CC3)c2)c1` [Example 42, cis-4-(1-{3-[(4-cyclopropylpyrimidin-2-yl)amino]-5-methylphenyl}-1H-imidazol-4-yl)-4-hydroxycyclohexyl benzoate], at least 7.00; as for `Cc1cc(Nc2cc(C)c(F)cn2)nc(-n2cnc([C@]3(O)CC[C@@H](O)CC3)c2)c1` [Example 43, cis-1-(1-{6-[(5-fluoro-4-methylpyridin-2-yl)amino]-4-methylpyridin-2-yl}-1H-imidazol-4-yl)cyclohexane-1,4-diol], at least 7.00. As for `Cc1cc(Nc2cc(C)c(Cl)cn2)nc(-n2cnc([C@]3(O)CC[C@@H](O)CC3)c2)c1` [Example 44, cis-1-(1-{6-[(5-chloro-4-methylpyridin-2-yl)amino]-4-methylpyridin-2-yl}-1H-imidazol-4-yl)cyclohexane-1,4-diol], the pIC50 was at least 7.00. For `Cc1cc(Nc2cc(C3CC3)ccn2)nc(-n2cnc([C@]3(O)CC[C@@H](O)CC3)c2)c1` [Example 45, cis-1-(1-{6-[(4-cyclopropylpyridin-2-yl)amino]-4-methylpyridin-2-yl}-1H-imidazol-4-yl)cyclohexane-1,4-diol], the pIC50 is at least 7.00.

In the case of `Cc1ccnc(Nc2cc(C)cc(-n3cnc([C@]4(O)CC[C@@H](O)CC4)c3)n2)c1` [Example 46, cis-1-(1-{4-methyl-6-[(4-methylpyridin-2-yl)amino]pyridin-2-yl}-1H-imidazol-4-yl)cyclohexane-1,4-diol], the pIC50 is at least 7.00.

With `Cc1cc(Nc2cc(C(C)(C)C)ccn2)nc(-n2cnc([C@]3(O)CC[C@@H](O)CC3)c2)c1` [Example 47, cis-1-(1-{6-[(4-tert-butylpyridin-2-yl)amino]-4-methylpyridin-2-yl}-1H-imidazol-4-yl)cyclohexane-1,4-diol], the pIC50 is at least 7.00.

Staying with this experiment, now noted: ATP 25 μM, 10-dose titration, read-out: rhSYK IC50.
On to `Cc1cc(Nc2cc(C(F)(F)F)ccn2)nc(-n2cnc([C@]3(O)CC[C@@H](C(=O)O)CC3)c2)c1` [Example 27, cis-4-hydroxy-4-[1-(4-methyl-6-{[4-(trifluoromethyl)pyridin-2-yl]amino}pyridin-2-yl)-1H-imidazol-4-yl]cyclohexanecarboxylic acid], for which the pIC50 was 9.12. Still for that read-out and setting: as for `Cc1cc(Nc2nccc(C(F)(F)F)n2)cc(-n2cnc([C@]3(O)CC[C@@H](O)CC3)c2)c1` [Example 37, Cis-1-[1-(3-methyl-5-{[4-(trifluoromethyl)pyrimidin-2-yl]amino}phenyl)-1H-imidazol-4-yl]cyclohexane-1,4-diol], the figure is 8.43; as for `Cc1cc(Nc2cc(C3CC3)ccn2)nc(-n2cnc([C@]3(O)CC[C@@H](O)CC3)c2)c1` [Example 45, cis-1-(1-{6-[(4-cyclopropylpyridin-2-yl)amino]-4-methylpyridin-2-yl}-1H-imidazol-4-yl)cyclohexane-1,4-diol], 8.86.

Source of the values: patent publication US9487504B2, “Imidazolyl analogs as syk inhibitors” (Merck Sharp & Dohme Corp., priority 2012, dated 2016).
